From patent EP1870419A2, “Modulators of beta-amyloid peptide aggregation comprising D-amino acids” (Praecis Pharmaceuticals Incorporated, priority 1999, dated 2000)
pEC50: −log10 of the molar value.

How the values were obtained:
[1] = biological target: T1, Aβ1-40 (Homo sapiens, UniProt P05067); test: Nucleation assay (turbidity at 405 nm, change in lag time); format: biochemical; settings: for Nucleation assay data 0.3 µM / Nucleation assay data 1 µM / Nucleation assay data 3 µM: Table II; for Nucleation assay Δlag 1.25 µM / Nucleation assay Δlag […] / Nucleation assay Δlag 5 µM: Table I
T1 construct: first Aβ1-40 peptide is dissolved in HFIP
Description: The nucleation assay is employed to determine the ability of test compounds to alter (e.g. inhibit) the early events in formation of β-AP fibers from monomeric β-AP. Characteristic of a nucleated polymerization mechanism, a lag time is observed prior to nucleation, after which the peptide rapidly forms fibers as reflected in a linear rise in turbidity. The time delay before polymerization of β-AP monomer can be quantified as well as the extent of formation of insoluble fiber by light scattering (turbidity). Polymerization reaches equilibrium when the maximum turbidity reaches a plateau. The turbidity of a solution of natural β-AP in the absence or presence of various concentrations of a β-amyloid modulator compound is determined by measuring the apparent absorbance of the solution at 405nm (A405 nm) over time. The threshold of sensitivity for the measurement of turbidity is in the range of 15-20 µM β-AP. […] This assay can be performed using stirring or shaking to accelerate polymerization, thereby increasing the speed of the assay. Moreover the assay can be adapted to a 96-well plate format to screen multiple compounds.
To perform the nucleation assay, first Aβ1-40 peptide is dissolved in HFIP (1,1,1,3,3,3-Hexafluoro-2-propanol; Aldrich 10,522-8) at a concentration of 2 mg peptide/ml and incubated at room temperature for 30 min. HFIP-solubilized peptide is sonicated in a waterbath sonicator for 5 min at highest setting, then evaporated to dryness under a stream of argon. The peptide film is resuspended in anhydrous dimethylsulfoxide (DMSO) at a concentration of 6.9 mg/ml (25x concentration), sonicated for 5 min as before, then filtered through a 0.2 micron nylon syringe filter (VWR cat. No. 28196-050). Test compounds are dissolved in DMSO at a 100x concentration. Four volumes of 25x Aβ1-40 peptide in DMSO are combined with one volume of test compound in DMSO in a glass vial, and mixed to produce a 1:1 molar ratio of Aβ peptide to test compound. For different molar ratios, test compounds are diluted with DMSO prior to addition to Aβ1-40, in order to keep the final DMSO and Aβ1-40 concentrations constant. […] Ten microliters of the mixture is then added to the bottom of a well of a Coming Costar ultra low binding 96-well plate (Corning Costar, Cambridge MA; cat. No. 2500). Ninety microliters of water is added to the well, the plate is shaken on a rotary shaken at a constant speed at room temperature for 30 seconds, an additional 100 µl of 2x PTL buffer (20 mM NaH2PO4, 300 mM NaCl, pH 7.4) is added to the well, the plate is reshaken for 30 seconds and a baseline (t=0) turbidity reading is taken by measuring the apparent absorbance at 405 nm using a Bio-Rad Model 450 Microplate Reader. The plate is then returned to the shaker and shaken continuously for 5 hours. Turbidity readings are taken at 15 minute intervals.
β-amyloid aggregation in the absence of any modulators results in enhanced turbidity of the natural β-AP solution (i.e., an increase in the apparent absorbance at 405 nm over time).

[2] = test system: NT2 cells; test: Neurotoxicity assay (MTT viability), NT-2 cells; format: cell-based, human; settings: aged (5 day or 8 day) aggregates, 48 hours, read-out: EC50 for toxicity
Description: (§1) The neurotoxicity of natural β-amyloid peptide aggregates, in either the presence or absence of a β-amyloid modulator, can be tested in a cell-based assay using either a rat or human neuronally-derived cell line (PC-12 cells or NT-2 cells, respectively) and the viability indicator […]-tetrazolium bromide (MTT). (See e.g., Shearman, M.S. et al. (1994) Proc. Natl. Acad. Sci. USA 91:1470-1474; Hansen, M.B. et al. (1989) J Immun. Methods 119:203-210 for a description of similar cell-based viability assays). PC-12 is a rat adrenal pheochromocytoma cell line and is available from the American Type Culture Collection, Rockville, MD (ATCC CRL 1721). MTT (commercially available from Sigma Chemical Co.) is a chromogenic substrate that is converted from yellow to blue in viable cells, which can be detected spectrophotometrically. […]

[3] = test system: PC12 cells; test: Neurotoxicity assay (MTT viability), PC-12 cells; format: cell-based, rat; settings: aged (5 day or 8 day) aggregates, 48 hours, read-out: EC50 for toxicity
Description: as §1

[4] = rows marked *: measured at 0.6 µM of compound
[5] = rows marked *: measured at 1.25 µM of compound
[6] = rows marked *: measured at […] of compound
[7] = 0.3 µM test compound, 5 µM Aβ1-40, ΔLag, ratio to control lag time
[8] = 1 µM test compound, 5 µM Aβ1-40, ΔLag, ratio to control lag time
[9] = 3 µM test compound, 5 µM Aβ1-40, ΔLag, ratio to control lag time
[10] = 1.25 µM test compound, 5 µM Aβ1-40, ratio to control lag time
[11] = 5 µM test compound, 5 µM Aβ1-40, ratio of lag time with compound to lag time of control
[12] = […] test compound, 5 µM Aβ1-40, ratio to control lag time

T1 sequence (P05067 672-711): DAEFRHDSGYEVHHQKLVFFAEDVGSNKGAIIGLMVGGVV

Substance	Nucleation assay Δlag 1.25 µM [1, 10]	Nucleation assay Δlag 5 µM [1, 11]	Nucleation assay Δlag […] [1, 12]	further results
2 TFA·H-lvf-NH-NH-fvl-H [PPI-1125]	–	–	–	Nucleation assay data 0.3 µM [1, 4]: 2.0; Nucleation assay data 1 µM [1, 5]: >2.5; Nucleation assay data 3 µM [1, 6]: >2.5
2TFA·H-(lfkvl)-NH2 [PPI-1321]	–	–	–	Nucleation assay data 0.3 µM [1, 7]: <1; Nucleation assay data 1 µM [1, 8]: <1; Nucleation assay data 3 µM [1, 9]: <1
TFA·H-(Glvffl)-NH2 [PPI-1013]	–	–	–	Nucleation assay Δlag 1.25 µM ([1]; rows marked #: measured at 0.6 µM of compound): 2; Nucleation assay Δlag […] ([1]; rows marked #: measured at 1.25 µM of compound): >3; Nucleation assay Δlag 5 µM ([1]; rows marked #: measured at […] of compound): 2
TFA·H-(lf-D-Cha-vl)-NH2 [PPI-1318]	–	–	–	Nucleation assay data 0.3 µM [1, 7]: 1; Nucleation assay data 1 µM [1, 8]: 2; Nucleation assay data 3 µM [1, 9]: >5
TFA·H-(lf-[F5]f-vl)-NH2 [PPI-1320]	–	–	–	Nucleation assay data 0.3 µM [1, 7]: 1; Nucleation assay data 1 µM [1, 8]: 3; Nucleation assay data 3 µM [1, 9]: >5
TFA·H-(lf-[p-F]f-vl)-NH2 [PPI-1319]	–	–	–	Nucleation assay data 0.3 µM [1, 7]: 1; Nucleation assay data 1 µM [1, 8]: >5; Nucleation assay data 3 µM [1, 9]: >5
TFA·H-(lvffa)-dimethylamide [PPI-993]	1	1	1	–
TFA·H-(lvffa)-isopropylamide [PPI-992]	1	3	1	–
TFA·N,N-diethyl-(Gaffvl)-NH2 [PPI-1005]	1	3	3	–
TFA·N,N-diethyl-(affvl)-NH, [PPI-1006]	1	1	1	–
TFA·N,N-dimethyl-(Gaffvl)-NH2 [PPI-803]	<1	<1	<1	–
TFA·N,N-dimethyl-(affvl)-NH2 [PPI-913]	1	1	1	–
TFA·N-ethyl-(Gaffvl)-NH2 [PPI-969]	3	>5	>5	–
TFA·N-isopropyl-(Gaffvl)-NH2 [PPI-970]	1	>5	>5	–
TFA·N-methyl-(Gaffvl)-NH2 [PPI-968]	2	>5	>5	–
TFA•N-methyl-(lvffl)-NH2 [PPI-1019]	–	–	–	Nucleation assay data 0.3 µM [1, 4]: 2.0; Nucleation assay data 1 µM [1, 5]: >2.5; Nucleation assay data 3 µM [1, 6]: >2.5
aged Aβ1-40 aggregates: Aβ1-40 peptide solution incubated at 37 °C for eight days to allow fibrils to form	–	–	–	pEC50 [2]: 5.70 to 6.00; pEC50 [3]: 5.70 to 6.00
